The source made the active and inactive calls.
Key:
Vero = assay: viability loss in Vero cells – cell-based, plate reader, cherry-pick samples, cytotoxicity control, dose response (AID 687020); type: functional; conditions: Chlorocebus sabaeus
[1] = biological target: T1, Scavenger receptor class B member 1 (Mus musculus, UniProt Q61009); assay: mouse SR-BI DiI-HDL transfer blockers – ldlA[mSR-BI] CHO cells, fluorescence plate reader, dry powder, set 9, dose response (AID 623880); type: functional, cell-based
T1 sequence (Q61009 whole entry): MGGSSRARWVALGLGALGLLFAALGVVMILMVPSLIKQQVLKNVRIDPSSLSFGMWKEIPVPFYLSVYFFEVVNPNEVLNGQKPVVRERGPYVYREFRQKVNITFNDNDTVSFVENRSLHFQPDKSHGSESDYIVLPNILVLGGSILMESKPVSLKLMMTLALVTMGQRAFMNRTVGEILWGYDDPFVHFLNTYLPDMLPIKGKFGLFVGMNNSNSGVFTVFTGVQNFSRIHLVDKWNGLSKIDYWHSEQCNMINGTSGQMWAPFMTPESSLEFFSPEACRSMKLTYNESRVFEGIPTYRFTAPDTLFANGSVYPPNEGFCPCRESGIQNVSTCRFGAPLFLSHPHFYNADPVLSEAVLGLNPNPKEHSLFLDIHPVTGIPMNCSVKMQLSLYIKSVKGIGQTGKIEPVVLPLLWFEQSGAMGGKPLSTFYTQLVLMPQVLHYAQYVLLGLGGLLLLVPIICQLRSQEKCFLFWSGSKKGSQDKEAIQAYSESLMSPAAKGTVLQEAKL

[2] = biological target: T1, Scavenger receptor class B member 1; assay: blockers of DiI-HDL lipid transfer via SR-BI – cell-based, ldlA[mSR-BI] CHO, DiI fluorescence, dry powder, set 10, dose response (AID 624029); type: functional
[3] = biological target: T2, Protein disulfide-isomerase (Homo sapiens, UniProt P07237); assay: inhibition of PDI-mediated insulin reduction – biochemical, turbidity, dry powder samples, set 2, confirmation (AID 652146)
[4] = general mammalian cell viability loss – activator set, cherry-pick, cytotoxicity control for miR-122 modulator project, dose response (AID 720690); type: functional, cell-based;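 note: HEK293T human cells scored for general mammalian cytotoxicity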
[5] = toxicity toward HepG2 liver cells – cell-based, plate reader, cherry-pick, antagonist series, cytotoxicity control, dose response (AID 743416); type: functional
[6] = A549 cell cytotoxicity, dose response, cytotoxicity control, plate reader, cherry-pick, antagonist series (AID 743412); type: functional, cell-based
[7] = blockade of melanocortin 4 receptor signaling – cell-based, plate reader, cherry pick, counter-screen for LGR2 antagonist project, dose response (AID 743444); type: functional;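 note: transfected HEK 293 cells stimulated with alpha-MSH peptide; potency of inhibitors of the alpha-MSH evoked signal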
[8] = blockers of bursicon-stimulated LGR2 cAMP reporter – cell-based, HEK293, CRE-luciferase reporter, cherry pick, set 2, dose response (AID 743343); type: functional;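 note: transfected cells were stimulated with diluted bursicon conditioned medium after compound addition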
Beta-lactamase [9] = biological target: Beta-lactamase (Salmonella choleraesuis (strain SC-B67), UniProt Q5J463); assay: Epi-absorbance-based counterscreen for selective VIM-2 inhibitors: dose response biochemical high throughput screening assay to identify inhibitors of TEM-1 serine-beta-lactamase.
Beta Lactamase [10] = biological target: T3, Beta Lactamase (Pseudomonas aeruginosa, UniProt Q932Y6); assay: VIM-2 CCF2 hydrolysis inhibition, assay artifact filter – biochemical, FRET readout, CCF2 substrate, artefact control for selective VIM-2 inhibitor project, dose response (AID 1926)
Beta-lactamase [11] = biological target: T4, Beta-lactamase (Pseudomonas aeruginosa, UniProt Q79MP6); assay: inhibition of IMP-1 beta-lactamase activity – biochemical, epi-absorbance, selectivity assay for VIM-2 inhibitor project, dose response (AID 1920)
Beta-lactamase [12] = biological target: T4, Beta-lactamase; assay: […] counterscreen for selective VIM-2 inhibitors: dose response biochemical high throughput screening assay to identify inhibitors of IMP-1 metallo-beta-lactamase.
Beta Lactamase [13] = biological target: T3, Beta Lactamase; assay: concentration-dependent VIM-2 enzyme inhibition – biochemical, epi-absorbance readout, selective inhibitors, dose response (AID 1919)
[14] = biological target: T5, Alkaline phosphatase, tissue-nonspecific isozyme (Homo sapiens, UniProt P05186); assay: TNAP enzyme inhibition by screening hits, dose response, selectivity assay for mouse IAP inhibitor project, biochemical, human TNAP, uHTS hits (AID 488906); type: functional
T5 sequence (P05186 whole entry): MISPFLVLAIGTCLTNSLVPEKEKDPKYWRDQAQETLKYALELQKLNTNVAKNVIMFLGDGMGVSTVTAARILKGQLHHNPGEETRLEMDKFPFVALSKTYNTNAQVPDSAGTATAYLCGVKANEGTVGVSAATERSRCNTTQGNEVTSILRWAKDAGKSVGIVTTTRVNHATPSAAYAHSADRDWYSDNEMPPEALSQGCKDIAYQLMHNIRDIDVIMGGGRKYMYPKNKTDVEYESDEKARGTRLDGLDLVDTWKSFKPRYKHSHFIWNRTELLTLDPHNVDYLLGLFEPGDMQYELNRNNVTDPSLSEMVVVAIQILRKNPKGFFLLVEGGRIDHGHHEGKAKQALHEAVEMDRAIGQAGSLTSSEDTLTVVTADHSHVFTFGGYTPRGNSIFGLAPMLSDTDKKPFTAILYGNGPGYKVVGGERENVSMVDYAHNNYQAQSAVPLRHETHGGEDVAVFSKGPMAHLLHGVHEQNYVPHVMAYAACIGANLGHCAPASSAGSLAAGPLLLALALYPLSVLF

[15] = biological target: Intestinal-type alkaline phosphatase (Homo sapiens, UniProt P09923); assay: inhibition of human intestinal alkaline phosphatase – biochemical, dose response (AID 488876); type: functional
[16] = biological target: Intestinal-type alkaline phosphatase (Mus musculus, UniProt P24822); assay: PubChem AID 488785; type: functional
[17] = biological target: T2, Protein disulfide-isomerase; assay: inhibition of PDI-driven insulin aggregation – biochemical, turbidity, absorbance, cherry-picked samples, dose response (AID 602350); type: functional

T2 sequence (P07237 whole entry): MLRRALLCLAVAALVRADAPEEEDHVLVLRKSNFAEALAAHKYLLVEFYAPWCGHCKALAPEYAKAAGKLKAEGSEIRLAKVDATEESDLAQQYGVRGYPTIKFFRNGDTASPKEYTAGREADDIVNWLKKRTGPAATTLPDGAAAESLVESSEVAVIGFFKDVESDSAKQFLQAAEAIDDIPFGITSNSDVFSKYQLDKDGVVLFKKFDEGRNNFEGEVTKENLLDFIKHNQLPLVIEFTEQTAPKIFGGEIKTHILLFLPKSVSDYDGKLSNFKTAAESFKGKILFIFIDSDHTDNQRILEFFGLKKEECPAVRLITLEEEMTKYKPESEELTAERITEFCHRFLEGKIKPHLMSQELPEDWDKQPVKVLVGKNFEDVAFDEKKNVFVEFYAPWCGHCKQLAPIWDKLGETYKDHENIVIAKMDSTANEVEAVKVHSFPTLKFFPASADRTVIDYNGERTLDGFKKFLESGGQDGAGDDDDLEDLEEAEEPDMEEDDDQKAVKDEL
T3 sequence (Q932Y6 whole entry): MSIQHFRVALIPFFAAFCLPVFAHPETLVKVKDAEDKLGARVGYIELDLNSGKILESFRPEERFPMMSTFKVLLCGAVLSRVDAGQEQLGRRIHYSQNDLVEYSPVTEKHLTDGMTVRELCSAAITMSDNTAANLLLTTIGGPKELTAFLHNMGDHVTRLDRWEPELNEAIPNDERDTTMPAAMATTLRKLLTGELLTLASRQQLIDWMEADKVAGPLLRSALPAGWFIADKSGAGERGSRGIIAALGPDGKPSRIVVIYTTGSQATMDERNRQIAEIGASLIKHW
T4 sequence (Q79MP6 whole entry): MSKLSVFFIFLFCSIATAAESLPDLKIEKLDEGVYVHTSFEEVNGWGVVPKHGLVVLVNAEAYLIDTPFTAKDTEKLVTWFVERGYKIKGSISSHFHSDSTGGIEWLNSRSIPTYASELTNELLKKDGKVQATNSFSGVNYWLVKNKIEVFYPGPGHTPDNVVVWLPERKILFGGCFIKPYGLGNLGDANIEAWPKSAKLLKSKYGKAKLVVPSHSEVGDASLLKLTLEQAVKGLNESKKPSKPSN
Sequence of Intestinal-type alkaline phosphatase (Homo sapiens, UniProt P09923) (P09923 whole entry): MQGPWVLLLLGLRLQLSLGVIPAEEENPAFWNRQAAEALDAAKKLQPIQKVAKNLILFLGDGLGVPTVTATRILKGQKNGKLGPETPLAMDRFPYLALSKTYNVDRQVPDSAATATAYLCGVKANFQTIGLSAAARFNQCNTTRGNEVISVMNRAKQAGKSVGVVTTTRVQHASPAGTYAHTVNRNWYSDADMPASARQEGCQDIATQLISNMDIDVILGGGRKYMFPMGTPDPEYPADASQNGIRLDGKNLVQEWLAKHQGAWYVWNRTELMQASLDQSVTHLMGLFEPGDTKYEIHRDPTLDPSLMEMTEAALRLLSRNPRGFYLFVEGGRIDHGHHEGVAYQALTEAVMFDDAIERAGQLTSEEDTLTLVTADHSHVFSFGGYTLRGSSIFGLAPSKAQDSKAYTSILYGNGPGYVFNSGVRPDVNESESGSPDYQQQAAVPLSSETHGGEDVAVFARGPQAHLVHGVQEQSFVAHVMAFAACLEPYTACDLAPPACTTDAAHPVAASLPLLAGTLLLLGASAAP
Sequence of Beta-lactamase (Salmonella choleraesuis (strain SC-B67), UniProt Q5J463) (Q5J463 whole entry): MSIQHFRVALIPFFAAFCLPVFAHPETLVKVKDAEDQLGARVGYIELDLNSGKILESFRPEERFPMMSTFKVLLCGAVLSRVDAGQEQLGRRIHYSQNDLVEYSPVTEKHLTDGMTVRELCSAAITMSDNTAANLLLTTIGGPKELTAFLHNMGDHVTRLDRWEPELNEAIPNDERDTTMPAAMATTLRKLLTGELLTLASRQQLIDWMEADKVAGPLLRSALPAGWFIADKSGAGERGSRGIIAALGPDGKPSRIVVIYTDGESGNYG
Sequence of Intestinal-type alkaline phosphatase (Mus musculus, UniProt P24822) (P24822 whole entry): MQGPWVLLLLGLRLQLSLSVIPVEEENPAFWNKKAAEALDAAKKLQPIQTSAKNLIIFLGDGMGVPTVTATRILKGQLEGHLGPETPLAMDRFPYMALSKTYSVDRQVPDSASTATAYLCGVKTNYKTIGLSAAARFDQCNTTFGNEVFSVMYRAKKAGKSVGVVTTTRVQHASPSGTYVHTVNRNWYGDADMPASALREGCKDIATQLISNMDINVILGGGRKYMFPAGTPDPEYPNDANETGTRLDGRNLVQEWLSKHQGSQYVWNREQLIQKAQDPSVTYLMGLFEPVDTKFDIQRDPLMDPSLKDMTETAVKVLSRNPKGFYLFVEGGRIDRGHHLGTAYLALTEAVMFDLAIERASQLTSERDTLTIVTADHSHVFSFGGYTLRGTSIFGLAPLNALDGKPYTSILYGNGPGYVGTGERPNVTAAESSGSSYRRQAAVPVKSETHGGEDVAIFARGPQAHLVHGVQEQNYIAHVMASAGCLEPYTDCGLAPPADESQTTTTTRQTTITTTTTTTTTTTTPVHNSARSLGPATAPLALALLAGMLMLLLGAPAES

Cc1cc(F)cc(-c2cc(C(=O)NCC3CCCCC3)[nH]n2)c1
AC50 (Vero): 22.6 µM (active)

C[C@@H]1CN([C@H](C)CO)C(=O)c2cc(NC(=O)C3CCCCC3)ccc2O[C@H]1CN(C)C(=O)c1ccc(Cl)cc1
AC50 [1]: 38.9 µM (active)
AC50 [2]: > 70 µM (inactive)

C=CCOc1ccc(CN2CCC(CCOc3ccccc3)(C(=O)NC3CCCC3)CC2)cc1Cl
AC50 [3]: > 30 µM (inactive)

O=C(C1CCCCC1)N1C[C@@H]2[C@H](c3ccccc31)[C@H](CO)N2Cc1ccccc1Cl
AC50 [4]: 27.1 µM (active)

O=C(N1CCCC1)C1(CCOc2ccccc2)CCN(Cc2ccc(O)c(Cl)c2)CC1
AC50 [3]: > 30 µM (inactive)

N#C[C@@H]1[C@H](c2ccc(C#Cc3cccc(F)c3)cc2)[C@@H](CO)N1C(=O)C1CCC1
AC50 [5]: > 47 µM (inactive)
AC50 [6]: 28.2 µM (active)
AC50 [7]: 8.46 µM (active)
AC50 [8]: 9.75 µM (active)

COc1cc(OC)c(OC)cc1/C=N/NC(=O)CC1C(=O)NN=C1C (stereo not given)
IC50 (Beta-lactamase [9]): > 59.6 µM (inactive)
IC50 (Beta Lactamase [10]): 1.46 µM (active)
IC50 (Beta-lactamase [11]): > 59.6 µM (inactive)
IC50 (Beta-lactamase [12]): > 59.6 µM (inactive)
IC50 (Beta Lactamase [13]): 4.22 µM (active)

O=C(c1c(O)cc(O)cc1O)C1c2c(cc(O)c3c2O[C@H](c2ccc(O)cc2)[C@@H](O)C3)OC1c1ccc(O)cc1 (stereo not given in full) [DIHYDRODAPHNODORIN B]
IC50 [14]: 19.7 µM (active)
IC50 [15]: 18.3 µM (active)
IC50 [16]: 7.21 µM (active)
AC50 [17]: 19.5 µM (active)

O=C1C[C@@H](c2ccc(O[C@@H]3O[C@H](CO)[C@@H](O)[C@H](O)[C@H]3O)cc2)Oc2cc(O)ccc21 [LIQUIRITIN]
AC50 [17]: 15.6 µM (active)

From ChEMBL document CHEMBL1201862, “PubChem BioAssay data set” (2004)
